For the assay, the system named is 324938-238-R-J1-PDC complex spheroid growth, % test/control. Kind of assay: Anticancer human tumor 324938-238-R-J1-PDC patient-derived bladder carcinoma cell line growth inhibition [AhR]. The conditions noted are these: for viability, T/C: stronger effect = lower value. The method, boiled down: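 Complex tumor spheroids co-cultured with HUVEC and human MSC stroma; AhR antagonists tested in combination with standard-of-care and investigational agents. Top concentration at or near clinical Cmax (else 10 microM), half-log dilutions; growth expressed as percent test/control.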

Where [1] appears, read: curve of first compound, second compound 0.1 µM.
[2] abbreviates: curve of first compound, second compound 0.316 µM.
The mark [3] stands for this setting: curve of first compound, second compound 1 µM.
[4] abbreviates: curve of first compound, second compound 3.16 µM.
Where [5] appears, read: curve of first compound, second compound 10 µM.
[6] abbreviates: second compound 0.1 µM, first compound 0.0316 µM.
Setting [7] is: second compound 0.1 µM, first compound 0.1 µM.
Where [8] appears, read: second compound 0.1 µM, first compound 0.316 µM.
[9] abbreviates: second compound 0.1 µM, first compound 1 µM.
The mark [10] stands for this setting: second compound 0.1 µM, first compound 3.16 µM.
[11] abbreviates: second compound 0.1 µM, first compound 10 µM.
Setting [12] is: second compound 0.316 µM, first compound 0.0316 µM.
Where [13] appears, read: second compound 0.316 µM, first compound 0.1 µM.
Setting [14] is: second compound 0.316 µM, first compound 0.316 µM.
Where [15] appears, read: second compound 0.316 µM, first compound 1 µM.
Where [16] appears, read: second compound 0.316 µM, first compound 3.16 µM.
Where [17] appears, read: second compound 0.316 µM, first compound 10 µM.
[18] abbreviates: second compound 1 µM, first compound 0.0316 µM.
Setting [19] is: second compound 1 µM, first compound 0.1 µM.
[20] abbreviates: second compound 1 µM, first compound 0.316 µM.
Setting [21] is: second compound 1 µM, first compound 1 µM.
[22] abbreviates: second compound 1 µM, first compound 3.16 µM.
The mark [23] stands for this setting: second compound 1 µM, first compound 10 µM.
[24] abbreviates: second compound 3.16 µM, first compound 0.0316 µM.
Setting [25] is: second compound 3.16 µM, first compound 0.1 µM.
Setting [26] is: second compound 3.16 µM, first compound 0.316 µM.
Where [27] appears, read: second compound 3.16 µM, first compound 1 µM.
Setting [28] is: second compound 3.16 µM, first compound 3.16 µM.
[29] abbreviates: second compound 3.16 µM, first compound 10 µM.
Where [30] appears, read: second compound 10 µM, first compound 0.0316 µM.
Where [31] appears, read: second compound 10 µM, first compound 0.1 µM.
The mark [32] stands for this setting: second compound 10 µM, first compound 0.316 µM.
Setting [33] is: second compound 10 µM, first compound 1 µM.
The mark [34] stands for this setting: second compound 10 µM, first compound 3.16 µM.
[35] abbreviates: second compound 10 µM, first compound 10 µM.

Several values for one entry are separate records, joined by “and”; a condition that tells them apart may be missing. Equal values may be shown once.
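Also: spheroids exposed to agents for seven days before viability read.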

`CCc1c2c(nc3ccc(O)cc13)-c1cc3c(c(=O)n1C2)COC(=O)[C@]3(O)CC` + Cc1ccccc1N=Nc1ccc(NC(=O)c2ccnn2C)c(C)c1: the IC50 worked out at 3.21 nM under setting [1]; 2.48 nM under setting [2]; 1.88 nM under setting [3]; 1.25 nM under setting [4]; 1.44 nM under setting [5]. Also, the viability, T/C runs as follows: (second compound 0.1 µM, first compound 0.000949 µM) 62.4%; (second compound 0.1 µM, first compound 0.003 µM) 52%; (second compound 0.1 µM, first compound 0.00949 µM) 18.5%; (second compound 0.1 µM, first compound 0.03 µM) 15.2%; (second compound 0.1 µM, first compound 0.0949 µM) 16.2%; (second compound 0.1 µM, first compound 0.3 µM) 15.5%. Besides, the viability, T/C is 57.4% (second compound 0.316 µM, first compound 0.000949 µM); 48.5% (second compound 0.316 µM, first compound 0.003 µM); 17.1% (second compound 0.316 µM, first compound 0.00949 µM); 16.4% (second compound 0.316 µM, first compound 0.03 µM); 14.2% (second compound 0.316 µM, first compound 0.0949 µM); 16.1% (second compound 0.316 µM, first compound 0.3 µM). In addition, the viability, T/C runs as follows: (second compound 1 µM, first compound 0.000949 µM) 52.4%; (second compound 1 µM, first compound 0.003 µM) 48.4%; (second compound 1 µM, first compound 0.00949 µM) 17.9%; (second compound 1 µM, first compound 0.03 µM) 12.9%; (second compound 1 µM, first compound 0.0949 µM) 15.8%; (second compound 1 µM, first compound 0.3 µM) 15.1%. In addition, the viability, T/C was 50.9% (second compound 3.16 µM, first compound 0.000949 µM); 47.9% (second compound 3.16 µM, first compound 0.003 µM); 14.9% (second compound 3.16 µM, first compound 0.00949 µM); 12.8% (second compound 3.16 µM, first compound 0.03 µM); 13.8% (second compound 3.16 µM, first compound 0.0949 µM); 15.4% (second compound 3.16 µM, first compound 0.3 µM). Moreover, the viability, T/C is, setting by setting: (second compound 10 µM, first compound 0.000949 µM) 52.3%; (second compound 10 µM, first compound 0.003 µM) 46%; (second compound 10 µM, first compound 0.00949 µM) 19.9%; (second compound 10 µM, first compound 0.03 µM) 12.9%; (second compound 10 µM, first compound 0.0949 µM) 14%; (second compound 10 µM, first compound 0.3 µM) 16.2%.

Consider `CC1COCCN1c1cc(-c2ccnn2C)c2ccnc(-c3ccn[nH]3)c2n1` (centres undefined), for which the viability, T/C (compound 0.00316 µM) was 98.3% and 108% and 107%; the viability, T/C (compound 0.01 µM) was 92.6% and 112% and 110%; the viability, T/C (compound 0.0316 µM) is 67.5% and 99.7% and 66.6%; the viability, T/C (compound 0.1 µM) is 55.1% and 76.3% and 45%; the viability, T/C (compound 0.316 µM) is 83.7% and 48.9% and 31.1%; the viability, T/C (compound 1 µM) is 68.1% and 27.7% and 19.9%.

As for `CC1(C)CCC(CN2CCN(c3ccc(C(=O)NS(=O)(=O)c4ccc(NCC5CCOCC5)c([N+](=O)[O-])c4)c(Oc4cnc5[nH]ccc5c4)c3)CC2)=C(c2ccc(Cl)cc2)C1` + Cc1cncc(-c2nc(NCCc3c[nH]c4ccccc34)c3ncn(C(C)C)c3n2)c1, the half-inhibitory concentration (IC50) was greater than 10000 nM under setting [1]; greater than 10000 nM under setting [2]; greater than 10000 nM under setting [3]; greater than 10000 nM under setting [4]; less than 31.6 nM under setting [5]. Further, the viability, T/C was 108% under setting [6]; 80.3% under setting [7]; 109% under setting [8]; 93% under setting [9]; 109% under setting [10]; 117% under setting [11]. Besides, the viability, T/C was 94.2% under setting [12]; 96.9% under setting [13]; 136% under setting [14]; 87.7% under setting [15]; 86.6% under setting [16]; 114% under setting [17]. Moreover, the viability, T/C under setting [18] is 112%; the viability, T/C under setting [19] was 123%; the viability, T/C under setting [20] is 131%; the viability, T/C under setting [21] is 107%; the viability, T/C under setting [22] is 103%; the viability, T/C under setting [23] is 130%. In addition, the viability, T/C is, setting by setting: under setting [24], 106%; under setting [25], 93.5%; under setting [26], 115%; under setting [27], 102%; under setting [28], 112%; under setting [29], 106%. The viability, T/C runs as follows: under setting [30], 13.5%; under setting [31], 8.66%; under setting [32], 11.9%; under setting [33], 7.88%; under setting [34], 9.07%; under setting [35], 12.5%.

Take `O=C(C=Cn1cnc(-c2cc(C(F)(F)F)cc(C(F)(F)F)c2)n1)NNc1cnccn1`: the viability, T/C runs as follows: (compound 0.00949 µM) 129% and 95.9% and 85.8%; (compound 0.03 µM) 100% and 95.8% and 75.1%; (compound 0.0949 µM) 71.5% and 69.7% and 47.7%; (compound 0.3 µM) 58.5% and 34.4% and 27%; (compound 0.949 µM) 45.4% and 16.9% and 15.9%. Further, where the note is “curve of compound”, the IC50 is 681 nM and 184 nM and 92.1 nM.

For `CC[C@@]1(O)C(=O)OCc2c1cc1n(c2=O)Cc2cc3c(CN(C)C)c(O)ccc3nc2-1`, the viability, T/C is 96% and 93.1% and 103% (compound 0.000316 µM); 96.2% and 106% and 108% (compound 0.001 µM); 66.5% and 84.8% and 87.8% (compound 0.00316 µM); 82.1% and 74.2% and 73.3% (compound 0.01 µM); 125% and 37.5% and 35.2% (compound 0.0316 µM); 106% and 17.9% and 16.8% (compound 0.1 µM). The IC50 (curve of compound) was > 100 nM and 21.3 nM and 20.1 nM.

In the case of `COc1cccc2c1C(=O)c1c(O)c3c(c(O)c1C2=O)CC(O)(C(=O)CO)CC3OC1CC(N)C(O)C(C)O1` (centres undefined) + CC(CO)NC(=O)c1cc(-c2ccc(Cl)cc2)nn(-c2cnn(C)c2)c1=O, the IC50 by setting is: under setting [1], less than 31.6 nM; under setting [2], less than 31.6 nM; under setting [3], less than 31.6 nM; under setting [4], less than 31.6 nM; under setting [5], less than 31.6 nM. Further, the viability, T/C runs as follows: under setting [6], 33.5%; under setting [7], 29.2%; under setting [8], 17.7%; under setting [9], 2.6%; under setting [10], 0.09%; under setting [11], 0.19%. Moreover, the viability, T/C reads like this: under setting [12], 34.6%; under setting [13], 28.6%; under setting [14], 16.8%; under setting [15], 3.87%; under setting [16], 0.08%; under setting [17], 0.19%. Also, the viability, T/C runs as follows: under setting [18], 32.9%; under setting [19], 30.9%; under setting [20], 15.5%; under setting [21], 1.51%; under setting [22], 0.09%; under setting [23], 0.19%. Further, the viability, T/C runs as follows: under setting [24], 31%; under setting [25], 36.1%; under setting [26], 19.6%; under setting [27], 1.04%; under setting [28], 0.09%; under setting [29], 0.68%. In addition, the viability, T/C runs as follows: under setting [30], 39.8%; under setting [31], 35.4%; under setting [32], 16.8%; under setting [33], 0.25%; under setting [34], 0.24%; under setting [35], 0.29%.

Source of the values: PubChem BioAssay AID1918995 (Molecular Pharmacology Branch, DTP, NCI, 2023).
